PubChem BioAssay AID248 (DTP/NCI, 2004)
Values joined by “and” are separate entries in the source; they are usually repeats but may differ in a detail not shown here. Equal values may be shown once. Toxic doses and inconclusive results are not listed.

Tested on: L1210 leukemia ip in BDF1 mice, survival T/C
Test: NCI In Vivo Anticancer Drug Screen. Data for tumor model L1210 Leukemia (intraperitoneal) in B6D2F1 (BDF1) mice
Conditions: higher = longer survival
Outline: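 Ratio derived from survival: compound-dosed mice over vehicle-dosed mice, all bearing a transplantable tumor.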

[1] = endpoint: mean survival time, dose: 200.0 mg/kg/injection, schedule: Q01DX001 (ip), vehicle: carboxymethylcellulose (CMC)
[2] = endpoint: mean survival time, dose: 100.0 mg/kg/injection, schedule: Q01DX001 (ip), vehicle: saline with Tween-80
[3] = endpoint: mean survival time, dose: 200.0 mg/kg/injection, schedule: Q01DX001 (ip), vehicle: saline with Tween-80
[4] = endpoint: mean survival time, dose: 400.0 mg/kg/injection, schedule: Q01DX001 (ip), vehicle: saline with Tween-80
[5] = endpoint: mean survival time, dose: 50.0 mg/kg/injection, schedule: Q01DX001 (ip), vehicle: carboxymethylcellulose (CMC)
[6] = endpoint: mean survival time, dose: 100.0 mg/kg/injection, schedule: Q04DX003 (ip), vehicle: saline with Tween-80
[7] = endpoint: mean survival time, dose: 100.0 mg/kg/injection, schedule: Q04DX003 (ip), vehicle: saline
[8] = endpoint: mean survival time, dose: 100.0 mg/kg/injection, schedule: Q04DX003 (ip), vehicle: Klucel (hydroxypropylcellulose) (HPC)
[9] = endpoint: mean survival time, dose: 200.0 mg/kg/injection, schedule: Q04DX003 (ip), vehicle: Klucel (hydroxypropylcellulose) (HPC)
[10] = endpoint: mean survival time, dose: 50.0 mg/kg/injection, schedule: Q04DX003 (ip), vehicle: Klucel (hydroxypropylcellulose) (HPC)
[11] = endpoint: mean survival time, dose: 25.0 mg/kg/injection, schedule: Q04DX003 (ip), vehicle: saline
[12] = endpoint: mean survival time, dose: 50.0 mg/kg/injection, schedule: Q04DX003 (ip), vehicle: saline

COC(=O)C(Cc1ccc(N(CCCl)CCCl)cc1)N=NNc1nc[nH]c1C(N)=O (centres undefined) was tested, and the T/C (endpoint: mean survival time, dose: 11.0 mg/kg/injection, schedule: Q03HX024 (ip), vehicle: other) was 150 % of control, the T/C (endpoint: mean survival time, dose: 17.0 mg/kg/injection, schedule: Q03HX024 (ip), vehicle: other) was 176 % of control and the T/C (endpoint: mean survival time, dose: 25.0 mg/kg/injection, schedule: Q03HX024 (ip), vehicle: other) was 157 % of control. The T/C (endpoint: mean survival time, dose: 38.0 mg/kg/injection, schedule: Q01DX009 (ip), vehicle: other) was 152 % of control, the T/C (endpoint: mean survival time, dose: 56.0 mg/kg/injection, schedule: Q01DX009 (ip), vehicle: other) was 114 % of control and the T/C (endpoint: mean survival time, dose: 88.0 mg/kg/injection, schedule: Q04DX003 (ip), vehicle: other) was 166 % of control. For the same compound, the T/C (endpoint: mean survival time, dose: 134.0 mg/kg/injection, schedule: Q04DX003 (ip), vehicle: other) was 160 % of control, the T/C [1] was 161 % of control and the T/C (endpoint: mean survival time, dose: 200.0 mg/kg/injection, schedule: Q04DX003 (ip), vehicle: other) was 103 % of control. For the same compound, the T/C (endpoint: mean survival time, dose: 300.0 mg/kg/injection, schedule: Q01DX001 (ip), vehicle: carboxymethylcellulose (CMC)) was 181 % of control, the T/C (endpoint: mean survival time, dose: 375.0 mg/kg/injection, schedule: Q01DX001 (ip), vehicle: carboxymethylcellulose (CMC)) was 151 % of control and the T/C (endpoint: median survival time, dose: 12.5 mg/kg/injection, schedule: Q01DX009 (ip), vehicle: steriod suspending solution) was 122 % of control. The T/C (endpoint: median survival time, dose: 50.0 mg/kg/injection, schedule: Q01DX009 (ip), vehicle: steriod suspending solution) was 105 % of control and the T/C (endpoint: median survival time, dose: 100.0 mg/kg/injection, schedule: Q01DX009 (ip), vehicle: steriod suspending solution) was 88 % of control.

With NC(N)=N/N=C/c1cccc(F)c1 the T/C (endpoint: mean survival time, dose: 15.0 mg/kg/injection, schedule: Q01DX Z (ip), vehicle: saline) was 111 % of control, the T/C (endpoint: mean survival time, dose: 15.0 mg/kg/injection, schedule: Q01DX Z (oral), vehicle: saline) was 87 % of control and the T/C (endpoint: mean survival time, dose: 30.0 mg/kg/injection, schedule: Q01DX Z (ip), vehicle: saline) was 90 % of control. The T/C (endpoint: mean survival time, dose: 30.0 mg/kg/injection, schedule: Q01DX Z (oral), vehicle: saline) was 90 % of control.

For CCCCCCCC(C(=O)O)C(C)C (centres undefined), the T/C [2] was 94 % of control, the T/C [3] was 106 % of control and the T/C [4] was 105 % of control.

In the case of O=S(=O)(F)c1ccc(C[P+](c2ccccc2)(c2ccccc2)c2ccccc2)cc1Cl, the T/C (endpoint: mean survival time, dose: 12.5 mg/kg/injection, schedule: Q01DX001 (ip), vehicle: carboxymethylcellulose (CMC)) is reported as 103 % of control, the T/C (endpoint: mean survival time, dose: 12.5 mg/kg/injection, schedule: Q01DX009 (ip), vehicle: carboxymethylcellulose (CMC)) is reported as 113 % of control and 117 % of control and the T/C (endpoint: mean survival time, dose: 12.5 mg/kg/injection, schedule: Q04DX002 (ip), vehicle: carboxymethylcellulose (CMC)) is reported as 97 % of control and 100 % of control. The T/C (endpoint: mean survival time, dose: 25.0 mg/kg/injection, schedule: Q01DX001 (ip), vehicle: carboxymethylcellulose (CMC)) was 99 % of control, the T/C (endpoint: mean survival time, dose: 25.0 mg/kg/injection, schedule: Q01DX009 (ip), vehicle: carboxymethylcellulose (CMC)) was 97 % of control and 98 % of control and the T/C (endpoint: mean survival time, dose: 25.0 mg/kg/injection, schedule: Q04DX002 (ip), vehicle: carboxymethylcellulose (CMC)) was 100 % of control and 103 % of control. For the same compound, the T/C (endpoint: mean survival time, dose: 25.0 mg/kg/injection, schedule: Q04DX003 (ip), vehicle: carboxymethylcellulose (CMC)) was 96 % of control and 102 % of control, the T/C [5] was 99 % of control and 101 % of control and 107 % of control and the T/C (endpoint: mean survival time, dose: 50.0 mg/kg/injection, schedule: Q01DX009 (ip), vehicle: carboxymethylcellulose (CMC)) was 98 % of control and 103 % of control. For the same compound, the T/C (endpoint: mean survival time, dose: 50.0 mg/kg/injection, schedule: Q04DX002 (ip), vehicle: carboxymethylcellulose (CMC)) was 100 % of control and 110 % of control, the T/C (endpoint: mean survival time, dose: 50.0 mg/kg/injection, schedule: Q04DX003 (ip), vehicle: carboxymethylcellulose (CMC)) was 102 % of control and 105 % of control and the T/C (endpoint: mean survival time, dose: 100.0 mg/kg/injection, schedule: Q04DX002 (ip), vehicle: carboxymethylcellulose (CMC)) was 101 % of control and 91 % of control. For the same compound, the T/C (endpoint: mean survival time, dose: 100.0 mg/kg/injection, schedule: Q04DX003 (ip), vehicle: carboxymethylcellulose (CMC)) was 102 % of control and 104 % of control.

In the case of CCCCN1C(=O)c2ccncc2C1=O, the T/C [2] is reported as 95 % of control, the T/C [6] is reported as 98 % of control and the T/C [3] is reported as 98 % of control. For the same compound, the T/C (endpoint: mean survival time, dose: 200.0 mg/kg/injection, schedule: Q04DX003 (ip), vehicle: saline with Tween-80) was 103 % of control, the T/C [4] was 111 % of control and the T/C (endpoint: mean survival time, dose: 400.0 mg/kg/injection, schedule: Q04DX003 (ip), vehicle: saline with Tween-80) was 100 % of control.

In the case of O=c1ccn(Cc2ccccc2)cn1, the T/C [7] is reported as 106 % of control, the T/C (endpoint: mean survival time, dose: 200.0 mg/kg/injection, schedule: Q04DX003 (ip), vehicle: saline) is reported as 104 % of control and the T/C (endpoint: mean survival time, dose: 400.0 mg/kg/injection, schedule: Q04DX003 (ip), vehicle: saline) is reported as 98 % of control.

CCCCCCCCc1ccc(C(C)=O)cc1 was tested, and the T/C (endpoint: mean survival time, dose: 100.0 mg/kg/injection, schedule: Q01DX009 (ip), vehicle: Klucel (hydroxypropylcellulose) (HPC)) was 94 % of control, the T/C [8] was 102 % of control and the T/C (endpoint: mean survival time, dose: 200.0 mg/kg/injection, schedule: Q01DX009 (ip), vehicle: Klucel (hydroxypropylcellulose) (HPC)) was 96 % of control. For the same compound, the T/C [9] was 100 % of control, the T/C (endpoint: mean survival time, dose: 400.0 mg/kg/injection, schedule: Q01DX009 (ip), vehicle: Klucel (hydroxypropylcellulose) (HPC)) was 86 % of control and the T/C (endpoint: mean survival time, dose: 400.0 mg/kg/injection, schedule: Q04DX003 (ip), vehicle: Klucel (hydroxypropylcellulose) (HPC)) was 107 % of control.

Cc1cc(C)c(F)c(Br)c1N was tested, and the T/C [10] was 95 % of control, the T/C (endpoint: mean survival time, dose: 100.0 mg/kg/injection, schedule: Q01DX001 (ip), vehicle: Klucel (hydroxypropylcellulose) (HPC)) was 97 % of control and the T/C [8] was 95 % of control. The T/C (endpoint: mean survival time, dose: 200.0 mg/kg/injection, schedule: Q01DX001 (ip), vehicle: Klucel (hydroxypropylcellulose) (HPC)) was 101 % of control, the T/C [9] was 106 % of control and the T/C (endpoint: mean survival time, dose: 400.0 mg/kg/injection, schedule: Q01DX001 (ip), vehicle: Klucel (hydroxypropylcellulose) (HPC)) was 100 % of control.

For O=C(Nc1ccc(Br)cc1)c1cc(Br)ccc1O, the T/C [5] was 98 % of control, the T/C (endpoint: mean survival time, dose: 100.0 mg/kg/injection, schedule: Q01DX001 (ip), vehicle: carboxymethylcellulose (CMC)) was 102 % of control and the T/C (endpoint: mean survival time, dose: 100.0 mg/kg/injection, schedule: Q04DX002 (ip), vehicle: Klucel (hydroxypropylcellulose) (HPC)) was 103 % of control. For the same compound, the T/C [1] was 89 % of control, the T/C (endpoint: mean survival time, dose: 200.0 mg/kg/injection, schedule: Q04DX002 (ip), vehicle: Klucel (hydroxypropylcellulose) (HPC)) was 92 % of control and the T/C (endpoint: mean survival time, dose: 400.0 mg/kg/injection, schedule: Q01DX001 (ip), vehicle: carboxymethylcellulose (CMC)) was 94 % of control. For the same compound, the T/C (endpoint: mean survival time, dose: 400.0 mg/kg/injection, schedule: Q04DX002 (ip), vehicle: Klucel (hydroxypropylcellulose) (HPC)) was 95 % of control.

OC(CC(CC(O)(C(F)(F)F)C(F)(F)F)=NNc1ccccc1)(C(F)(F)F)C(F)(F)F was tested, and the T/C (endpoint: mean survival time, dose: 25.0 mg/kg/injection, schedule: Q04DX003 (ip), vehicle: saline with Tween-80) was 101 % of control, the T/C (endpoint: mean survival time, dose: 50.0 mg/kg/injection, schedule: Q04DX003 (ip), vehicle: saline with Tween-80) was 101 % of control and the T/C [6] was 93 % of control and 90 % of control.

With CCOC(=O)Cn1c(=O)ssc1=O the T/C [11] was 100 % of control, the T/C [12] was 100 % of control and the T/C [7] was 100 % of control.

In the case of O=C1C(Br)=CC(Br)=C/C1=N/Br, the T/C [10] is reported as 108 % of control, the T/C [8] is reported as 97 % of control and the T/C [9] is reported as 93 % of control.

For C1CCN(CN2CCCC2)C1, the T/C (endpoint: mean survival time, dose: 25.0 mg/kg/injection, schedule: Q01DX001 (ip), vehicle: saline) was 96 % of control, the T/C (endpoint: mean survival time, dose: 25.0 mg/kg/injection, schedule: Q01DX009 (ip), vehicle: saline) was 92 % of control and the T/C [11] was 98 % of control. The T/C (endpoint: mean survival time, dose: 50.0 mg/kg/injection, schedule: Q01DX001 (ip), vehicle: saline) was 94 % of control, the T/C (endpoint: mean survival time, dose: 50.0 mg/kg/injection, schedule: Q01DX009 (ip), vehicle: saline) was 92 % of control and the T/C [12] was 105 % of control. For the same compound, the T/C (endpoint: mean survival time, dose: 100.0 mg/kg/injection, schedule: Q01DX001 (ip), vehicle: saline) was 97 % of control and 88 % of control and the T/C [7] was 88 % of control.
